Measurements taken from ChEMBL document CHEMBL1201862, “PubChem BioAssay data set” (2004).
The source made the active and inactive calls.

Experiments:
Cytochrome P450 2C19 = Cytochrome P450 2C19 (Homo sapiens, UniProt P33261); assay: Cytochrome panel assay with activity outcomes. Panel member name: p450-cyp2c19 Compounds with AC50 equal or less than 10 uM are considered active; assay type: functional
Cytochrome P450 3A4 = Cytochrome P450 3A4 (Homo sapiens, UniProt P08684);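 note: CYP3A4 tested as one member of a cytochrome P450 panel screen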
[1] = inhibitors of SNCA 5'UTR-driven reporter translation, confirmation, H4 neuroglioma cells, luminescence (AID 1988); assay type: functional, cell-based
[2] = inhibitors of firefly luciferase expression or activity, dose response, H4 neuroglioma cells, luminescence (AID 1990); assay type: functional, cell-based
[3] = Luminescence Cell-Based Dose Response HTS to Identify Inhibitors of 5'UTR Stem-Loop Driven Prion Protein mRNA Translation in H4 Neuroglioblastoma Cells. [Related pubchem assays: 1827 (Project Summary), 1813 (Primary HTS)]; assay type: functional
[4] = target: T1, Corticotropin-releasing factor receptor 2/Corticotropin-releasing factor-binding protein (Homo sapiens, UniProt P24387+Q13324); assay: Dose Response confirmation of uHTS hits for small molecule antagonists of the CRF-binding protein and CRF-R2 receptor complex.; assay type: functional; conditions: read-out: IC50_Mean
T1 sequence (Q13324 whole entry): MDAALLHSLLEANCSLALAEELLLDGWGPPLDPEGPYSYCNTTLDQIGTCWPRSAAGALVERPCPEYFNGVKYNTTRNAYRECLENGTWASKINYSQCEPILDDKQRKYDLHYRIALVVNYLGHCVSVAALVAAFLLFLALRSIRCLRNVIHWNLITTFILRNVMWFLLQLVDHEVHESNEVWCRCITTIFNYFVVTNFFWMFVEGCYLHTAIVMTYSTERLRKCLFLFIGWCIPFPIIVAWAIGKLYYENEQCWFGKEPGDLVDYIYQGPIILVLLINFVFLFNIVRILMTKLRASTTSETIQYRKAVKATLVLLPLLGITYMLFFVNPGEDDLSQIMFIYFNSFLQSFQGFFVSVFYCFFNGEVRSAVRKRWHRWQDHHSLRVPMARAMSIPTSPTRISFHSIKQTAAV
T1 sequence (P24387 whole entry): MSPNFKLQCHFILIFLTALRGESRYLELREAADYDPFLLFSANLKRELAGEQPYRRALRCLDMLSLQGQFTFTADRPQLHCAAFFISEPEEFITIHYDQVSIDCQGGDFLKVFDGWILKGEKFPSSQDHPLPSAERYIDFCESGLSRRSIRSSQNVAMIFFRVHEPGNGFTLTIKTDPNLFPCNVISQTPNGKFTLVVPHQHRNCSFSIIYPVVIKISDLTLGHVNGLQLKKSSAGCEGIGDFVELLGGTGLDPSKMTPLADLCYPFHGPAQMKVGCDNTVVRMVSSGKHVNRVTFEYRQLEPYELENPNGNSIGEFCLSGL

[5] = target: T1, Corticotropin-releasing factor receptor 2/Corticotropin-releasing factor-binding protein; assay: activators of CRF receptor 2 with binding protein – uHTS hits, confirmation (AID 602473); assay type: functional; conditions: read-out: EC50_Mean
[6] = target: T2, Calpain-2 catalytic subunit (Sus scrofa, UniProt P43367); assay: pig calpain II inhibitor potency, dose response, biochemical, fluorogenic peptide substrate (AID 1420); assay type: functional
T2 sequence (P43367 whole entry): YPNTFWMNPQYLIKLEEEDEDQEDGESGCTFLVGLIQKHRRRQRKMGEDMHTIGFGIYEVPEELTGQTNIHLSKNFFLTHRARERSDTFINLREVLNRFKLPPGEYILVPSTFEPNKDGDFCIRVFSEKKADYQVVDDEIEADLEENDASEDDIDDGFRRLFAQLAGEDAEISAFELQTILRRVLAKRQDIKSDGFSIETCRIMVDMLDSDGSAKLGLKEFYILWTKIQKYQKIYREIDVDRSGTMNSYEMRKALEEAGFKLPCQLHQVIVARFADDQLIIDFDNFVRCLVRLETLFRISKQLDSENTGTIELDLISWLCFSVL

H4 = assay: Luminescence Cell-Based Dose Response HTS to Identify Activators of 5'UTR Stem-Loop Driven Prion Protein mRNA Translation in H4 Neuroglioblastoma Cells. [Related pubchem assays: 1829 (Project Summary), 1814 (Primary HTS)]; assay type: functional; conditions: Homo sapiens
[7] = Luminescence Cell-Based Dose Response HTS to Identify Activators of Luciferase Translation or Activity in H4 […] Cells. [Related pubchem assays: 1829 (Project Summary), 1814 (Primary HTS)]; assay type: functional

Cytochrome P450 3A4, sequence (P08684 whole entry): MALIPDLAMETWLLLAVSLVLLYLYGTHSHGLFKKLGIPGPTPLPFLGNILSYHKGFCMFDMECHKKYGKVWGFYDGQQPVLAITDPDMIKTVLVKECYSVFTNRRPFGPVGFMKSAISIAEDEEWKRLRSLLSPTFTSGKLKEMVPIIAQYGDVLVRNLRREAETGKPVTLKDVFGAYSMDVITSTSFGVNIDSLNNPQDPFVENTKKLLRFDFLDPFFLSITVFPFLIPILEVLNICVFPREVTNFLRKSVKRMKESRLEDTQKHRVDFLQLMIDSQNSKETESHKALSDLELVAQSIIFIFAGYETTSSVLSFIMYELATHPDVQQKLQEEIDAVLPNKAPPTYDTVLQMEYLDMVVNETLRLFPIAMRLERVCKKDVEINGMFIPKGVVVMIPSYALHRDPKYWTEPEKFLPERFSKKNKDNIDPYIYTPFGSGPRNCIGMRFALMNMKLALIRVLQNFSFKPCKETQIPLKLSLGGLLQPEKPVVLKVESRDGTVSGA
Cytochrome P450 2C19, sequence (P33261 whole entry): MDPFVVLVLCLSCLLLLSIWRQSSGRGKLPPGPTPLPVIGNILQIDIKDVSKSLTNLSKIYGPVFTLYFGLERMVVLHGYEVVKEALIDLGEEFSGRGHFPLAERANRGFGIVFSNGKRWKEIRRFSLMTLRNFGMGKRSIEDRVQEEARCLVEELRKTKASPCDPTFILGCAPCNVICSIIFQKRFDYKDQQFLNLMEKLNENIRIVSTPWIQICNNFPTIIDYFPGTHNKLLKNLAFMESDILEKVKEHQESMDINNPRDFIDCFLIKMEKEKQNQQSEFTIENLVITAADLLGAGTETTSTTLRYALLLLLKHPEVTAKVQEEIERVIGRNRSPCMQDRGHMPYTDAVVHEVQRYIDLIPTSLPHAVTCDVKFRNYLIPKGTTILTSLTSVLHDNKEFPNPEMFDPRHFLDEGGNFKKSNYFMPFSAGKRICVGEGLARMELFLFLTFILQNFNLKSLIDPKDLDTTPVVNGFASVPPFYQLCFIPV

For O=C1[C@@H]2[C@H]3[C@H](O)[C@H](O)C/C(=N/OC[C@@H](O)COCc4ccco4)[C@@H]3CC[C@H]2C(=O)N1c1ccc(F)cc1F, the AC50 (Cytochrome P450 2C19) was “inconclusive” and the AC50 (Cytochrome P450 3A4) was 3.16 µM (inconclusive).

For O=C(/C=C\Nc1ccc(S(=O)(=O)Nc2ncccn2)cc1)c1cccc2ccccc12, the EC50 [1] was > 120 µM (not active), the EC50 [2] was 18.3 µM (active) and the EC50 [3] was > 120 µM (not active).

For CCN(c1ccccc1)S(=O)(=O)c1ccc(NC(=S)NC(=O)c2cccs2)cc1, the AC50 (Cytochrome P450 3A4) was 2.24 µM (inconclusive).

For N#CNC(=Nc1cccc(F)c1)SCc1ccccc1, the IC50 [4] was 14 µM (active) and the EC50 [5] was > 53 µM (inactive).

With Cc1ccc(C(=O)N2C(=O)C(c3ccccc3)Oc3ccccc32)cc1 (centres undefined) the EC50 [1] was > 120 µM (not active), the EC50 [2] was > 120 µM (not active) and the EC50 [3] was > 120 µM (not active).

In the case of CCC(=O)OCC(=O)c1cc(C)n(-c2ccc(Br)cc2)c1C, the IC50 [6] is reported as 6.49 µM (not active).

With CC(OC(=O)c1ccccc1Nc1ccc(SC(F)F)cc1)C(N)=O (centres undefined) the IC50 [6] was 12 µM (not active).

With CSCCC(NS(=O)(=O)c1ccc(Cl)cc1)C(=O)OCC(=O)N1CCCc2ccccc21 (centres undefined) the IC50 [6] was 14.6 µM (not active).

For Cc1[nH]c2ccccc2c1SCCNC(=O)c1ccc(S(=O)(=O)N2CCCC2)cc1, the IC50 [4] was > 47.1 µM (inactive) and the EC50 [5] was > 53 µM (inactive).

For c1ccc(CSc2nnc3c4ccccc4c4ccccc4c3n2)cc1, the AC50 (Cytochrome P450 3A4) was 3.98 µM (inconclusive).

For Nc1cc(O)nc(SCCSc2ccccc2F)n1, the EC50 [1] was 1.29 µM (active), the EC50 [2] was < 0.1 µM (active) and the EC50 [3] was 22.3 µM (active).

With COc1ccc(C(NC(=O)C(C)C)c2c(O)ccc3ccccc23)cc1OC (centres undefined) the IC50 [6] was 18.4 µM (not active).

In the case of CNC(=O)CN(C1CCCCC1)S(=O)(=O)c1ccc(F)cc1, the IC50 [4] is reported as > 47.1 µM (inactive) and the EC50 [5] is reported as > 53 µM (inactive).

In the case of CCN(CC)S(=O)(=O)c1ccc(C(=O)NCc2ccc3c(c2)OCO3)cc1, the IC50 [6] is reported as > 50 µM (not active).

In the case of O=C(CC1CC2CCC1C2)OCC(=O)c1c[nH]c2ccccc12 (centres undefined), the IC50 [6] is reported as 27.5 µM (not active).

In the case of Cc1cc(Br)ccc1SCC(=O)OCC(=O)c1c(N)n(C)c(=O)n(C)c1=O, the IC50 [6] is reported as 10.8 µM (active).

In the case of COCCCNc1nc(N)c([N+](=O)[O-])c(Nc2cc(OC)ccc2OC)n1, the EC50 [1] is reported as 17.8 µM (active), the EC50 [2] is reported as 17.4 µM (active) and the EC50 [3] is reported as 13.5 µM (active).

With CCCCCC(=O)Nc1ccccc1N1CCOCC1 the EC50 [1] was > 120 µM (not active), the EC50 [2] was > 120 µM (not active) and the EC50 [3] was > 120 µM (not active).

For CCOC(=O)c1ccccc1NC1c2ccccc2C(=O)N1c1ccc(C)cn1 (centres undefined), the EC50 (H4) was 18.5 µM (active) and the EC50 [7] was 9.17 µM (active).
